Assay results from US20200345637A1, “SUSPENSION COMPOSITIONS OF MULTI-TARGET INHIBITORS” (AIVIVA BIOPHARMA, INC., priority 2018, published 2020).
In brackets after ≈: the same amount, converted by molar mass. Several values for one entry are separate records, joined by “and”; a condition that tells them apart may be missing. Equal values may be shown once. Read-outs that look alike come from different tables or passages of the source.

Columns and labels:
[1] = rabbit, in vivo; for tissue concentrations in the retina and choroid / intravitreal dose remained in the vitreous humor / depot and streaks in vitreous humor by fundus imaging: Dutch Belted
Protocol: (§2) This study evaluated the tolerability and dispersion of the formulations of nintedanib and lenvatinib over 42 days in the posterior segment of the eyes. A single 50 μL intravitreal administration of the 1% suspension was administered to Dutch Belted rabbits.

[2] = in vivo; conditions: New Zealand White, rabbit
Protocol: (§3) This study evaluated the local tolerance of vehicle, axitinib, pirfenidone, sorafenib and lenvatinib and ocular distribution of axitinib, sorafenib and lenvatinib (0.3% w/w) when administered by topical ocular instillation in the eyes of New Zealand white rabbits (n=6 per group). […] On Dosing Day 5, the animals were sacrificed and eyes were enucleated. Ocular and plasma concentrations of select compounds were measured by LC-MS/MS.

[3] = Terminal sterilization and stability assay of formulated suspension; format: physicochemical
Source text: (§1) Examples 1-3 depict the results of physical testing of some subject formulations.

[4] = rabbit, in vivo
Protocol: as §3

[5] = system: linear incision wound sites; experiment: Intradermal injection along linear incision wounds, histological evaluation; format: in vivo, minipigs; conditions: for granulation tissue formation compared to vehicle treated control wounds / presence of myofibroblasts compared to vehicle treated control wounds: 2% suspension (sorafenib 1% suspension); for SMA staining / dermis fibrin / dermis fibroplasia / dermis provisional matrix / epidermis hyperplasia / inflammation / subcutis fibroplasia / subcutis mixed cell infiltrate: microscopic grade over 29 days
Protocol: The purpose of this study was to evaluate the suspension formulation when administered via intradermal injection with axitinib, nintedanib, sorafenib, and lenvatinib to the dorsal skin along linear incisions of minipigs.
Four male minipigs were dosed. Animals were dosed once via intradermal injection along the edges of each of 10 wound sites for each animal (5 wounds on each side of the dorsum [perpendicular to the spine], approximately 3 cm in length and 3 cm distance from the spine). Axitinib, nintedanib, lenvatinib, and the vehicle control article were administered via eight 0.1 mL intradermal injections around each respective wound site (one injection/cm on both sides of the wound), for a total volume of 0.8 mL/wound site. Sorafenib was administered via the same method at a volume of 0.2 mL/injection, for a total volume of 1.6 mL/wound site. The vehicle control article was Vehicle for Test Articles axitinib, nintedanib, lenvatinib, and sorafenib.
A generalized measure of inflammation, including inflammatory cell infiltrate, fibrin deposition, fibroplasia, epithelial hyperplasia and areas of tissue necrosis were assessed microscopically. […] For test agent treated wounds, all were graded as slight on Day 4, and there was no consistent difference over time as compared to the control group.

[6] = in vivo; parameters: species or system New Zealand White rabbits; conditions: male, New Zealand White, rabbit
Protocol: Five to seven male New Zealand White rabbits were used per treatment group. Each eye received a 35 μl eyedrop of vehicle, or respective drugs (0.3%) three times daily for 10 days. After the last dose on Day 11, the animals were sacrificed and eyes were enucleated, and plasma and the ocular tissues were collected. Tissue and plasma concentrations of these compounds were measured by LC-MS/MS.

[7] = systemic; literature or US label; cited from earlier work
[8] = Aqueous solubility of multi-target inhibitors; format: physicochemical; conditions: aqueous (not further specified)
Source text: Non-limiting examples of the useful multi-target inhibitors and their physicochemical forms are given in Table 1 with aqueous solubility information.

[9] = Suspension physical testing: particle size, pH, osmolality, syringeability; format: physicochemical; parameters: API Raw Material PSD D50 / Formulated Suspension Particle size distribution D50 / API Raw Material PSD D90 / Formulated Suspension Particle size distribution D90: unit not given here; conditions: for Formulated Suspension Syringeability: needle gauge passed
Source text: as §1

[10] = in vivo; conditions: Dutch Belted, rabbit
Protocol: as §2

[11] = system: choroid neovascularization lesions; experiment: Laser-induced choroid neovascularization model in rats; format: in vivo, Brown Norway rats; conditions: intravitreal injection 50 μg/eye; fluorescein angiography Day 22
Protocol: The tolerability, efficacy, and ocular distribution were evaluated in a laser-induced choroid neovascularization model in rats. […] In this 22-day study, effects of local administration of the multi-target (i.e., multi-target kinase) inhibitors nintedanib and lenvatinib were examined on the development of new vessels. Vehicle and positive control groups were included in the study. Female Brown Norway rats were divided into 7 separate treatment groups. On Day 1, laser treatments were performed on all animals using a 520 nm thermal laser to generate a total of three lesions per eye. […] On Day 3, bilateral intravitreal injections of vehicle, 5 μg/eye of rat anti-VEGF antibody, 50 μg/eye of nintedanib, or 50 μg/eye of lenvatinib were performed. On Day 22, fluorescein angiography was performed on all animals, and the lesion sizes/areas were determined using image analysis software (Image J). […] Concentrations of test compounds in ocular tissues and plasma were measured by LCMS-MS after intravitreal or eyedrop administration in rats. […] The eyedrop administration produced higher drug concentrations in the ocular surface, such as conjunctiva, than the intravitreal injection. Three times daily eyedrop administration maintained higher concentrations in plasma than a single intravitreal injection.

| SMILES | tissue concentrations in the retina and choroid [1] | depot and streaks in vitreous humor by fundus imaging ([1]; 42 days) | intravitreal dose remained in the vitreous humor ([1]; 42 days) | Assay (% of labeled claim) of Formulated Suspension, Initial ([3]; Autoclave) | Assay (% of labeled claim) of Formulated Suspension, 4 months (40° C./75% RH) ([3]; Gamma irradiation) | Assay (% of labeled claim) of Formulated Suspension, 6 weeks (40° C./75% RH) ([3]; Gamma irradiation) | Assay (% of labeled claim) of Formulated Suspension, Initial ([3]; Gamma irradiation) | granulation tissue formation compared to vehicle treated control wounds [5] | presence of myofibroblasts compared to vehicle treated control wounds [5] | SMA staining [5] | dermis fibrin [5] | dermis fibroplasia [5] | dermis provisional matrix [5] | epidermis hyperplasia [5] | inflammation [5] | subcutis fibroplasia [5] | subcutis mixed cell infiltrate [5] | terminal plasma half-life in man [7] | solubility [8] | API Raw Material PSD D50 [9] | other results |
| --- | --- | --- | --- | --- | --- | --- | --- | --- | --- | --- | --- | --- | --- | --- | --- | --- | --- | --- | --- | --- | --- |
| COc1cc2nccc(Oc3ccc(NC(=O)NC4CC4)c(Cl)c3)c2cc1C(N)=O [Lenvatinib] | over 1 μg/gm | remained present out to Day 42 postdose | 3-9% | 99.0 % of labeled claim | 99.8 % of labeled claim and 100.2 % of labeled claim | 99.2 % of labeled claim and 99.8 % of labeled claim | 101.4 % of labeled claim and 102.4 % of labeled claim | delay in granulation tissue formation | prolonged presence of myofibroblasts | slight | minimal to slight | minimal to slight | marked to minimal | slight to none | slight to marked | moderate to minimal | slight to severe | 30 h | 4 µg/mL (≈ 9.37 µM) | D50: 164 | intravitreal dose remained in the vitreous humor ([1]; 29 days): 9-17%; concentration at 5 day of dosing [2]: 131 ng/mL; concentrations in the choroid and retina [4]: significant concentrations; drug concentrations in anterior tissues of conjunctiva, sclera and cornea [4]: high drug concentrations; concentration at 11 day (after the last dose) [6]: 98.5 ng/mL; API Raw Material PSD D90 [9]: D90: 346; Formulated Suspension Osmolality [9]: 201 mOsm/kg; Formulated Suspension Particle size distribution D50 [9]: D50: 7; Formulated Suspension Particle size distribution D90 [9]: D90: 25; Formulated Suspension pH [9]: 7.6; Formulated Suspension Syringeability [9]: Pass 27G; concentration at 29 days [10]: 4.94 ng/mL; concentration at 42 days [10]: 3.91 ng/mL; lesion sizes relative to positive control, rat anti-VEGF [11]: significantly reduced lesion sizes; lesion sizes relative to vehicle-treated eyes [11]: significantly reduced lesion sizes |
| COC(=O)c1ccc2c(c1)NC(=O)/C2=C(\Nc1ccc(N(C)C(=O)CN2CCN(C)CC2)cc1)c1ccccc1 [Nintedanib] | higher than 1 μg/gm | remained present out to Day 42 postdose | 4-7% | 96.0 % of labeled claim | 90.0 % of labeled claim and 97.9 % of labeled claim | 98.1 % of labeled claim and 99.7 % of labeled claim | 101.8 % of labeled claim and 103.0 % of labeled claim | delay in granulation tissue formation | prolonged presence of myofibroblasts | none to moderate | slight to moderate | none to slight | marked | minimal to moderate | slight to moderate | none to moderate | slight to marked | 9.5 h | 9 µg/mL (≈ 16.7 µM) | D50: 68 | Concentrations in conjunctival tissue [1]: mostly under quantitation limit; API Raw Material PSD D90 [9]: D90: 105; Formulated Suspension Osmolality [9]: 207 mOsm/kg; Formulated Suspension Particle size distribution D50 [9]: D50: 22; Formulated Suspension Particle size distribution D90 [9]: D90: 35; Formulated Suspension pH [9]: 7.6; Formulated Suspension Syringeability [9]: Pass 23G; concentration at 29 days [10]: 0.252 ng/mL; concentration at 42 days [10]: 0.348 ng/mL; lesion sizes relative to vehicle-treated eyes [11]: significantly reduced lesion sizes |
